Laboratory results as given in article PMC8658016, “Identification of New Compounds with Anticonvulsant and Antinociceptive Properties in a Group of 3-substituted (2,5-dioxo-pyrrolidin-1-yl)(phenyl)-Acetamides” (International Journal of Molecular Sciences, 2021).

Tests used:
[1] = system: fast voltage-gated sodium currents in rat prefrontal cortex pyramidal neurons; test: Patch-clamp, fast voltage-gated sodium currents; format: cell-based
Text: Consequently, we determined the influence of compound 14 on the fast activating and fast inactivating voltage-gated sodium currents in rat prefrontal cortex pyramidal neurons using the patch-clamp technique. Maximal currents were evoked by rectangular voltage steps to 0 mV from a physiological holding potential of -65 mV. After recording a stable control, compound 14 was applied to the whole bath for three minutes. […] Therefore, it was very likely that the potent inhibition of sodium currents by compound 14 similar to compound II was one of the mechanisms providing a similar level of anticonvulsant activity. Moreover, the influence of several additional concentrations of compound 14 on voltage-gated sodium currents were tested to confirm the dose–response relationship. In sum, the following concentrations were applied; 0.01 µM, 0.1 µM, 1 µM, 10 µM, and the results obtained were as follows: 0.95 ± 0.05 (p > 0.05, n = 5), 0.84 ± 0.03 (p < 0.05, n = 5), 0.82 ± 0.05 (p < 0.01, n = 5), and 0.77 ± 0.02 (p < 0.01, n = 5), respectively (Figure 9D, currents were normalized to control currents). It is worthy of note that the significant inhibitory effect was observed starting from the concentration of 0.1 µM, whereas no activity was detected at 0.01 µM. Furthermore, a clear dose–response relationship was visible. All the aforementioned results certainly supporting the inhibition of fast voltage-gated sodium currents, seemed to be crucial for the antiseizure activity of compound 14. The methodology of slice preparation, slice preincubation, and patch-clamp technique was the same as in our previous study. In this study, however, we used different recording solutions. The composition of pipette solution was (in mM) CsF (110), NaCl (7), EGTA (3), HEPES-Cl (10), MgCl2 (2), and Na2ATP (4) at pH 7,4. The composition of extracellular solution was (in mM) NaCl (30), choline chloride (90), TEA-Cl (30), CaCl2 (2), MgCl2 (2), glucose (15), HEPES (10), LaCl3 (0.001), and CdCl2 (0.4) at pH 7.4. Compound 14 was tested at concentration of 1 µM.  Figure 9 The influence of compound 14 on fast, voltage-gated sodium current. (A) The influence of tested compound on sodium current is shown on an example neuron. Current traces were evoked once every ten seconds by a rectangular voltage step. […] (B) Example sodium current recordings in control (black trace), after application of compound 14 (1 µM) (blue trace) and after wash-out (red trace). (C) Averaged normalized maximal current amplitudes in control, in the presence of compound 14 (1 µM) and after wash-out. (D) Averaged normalized maximal current amplitudes in control and in the presence of different concentrations of compound 14 (0.01 µM, 0.1 µM, 1 µM, and 10 µM). Statistical significance was analyzed by Graph Pad Prism 8.0.1 software using Tukey post hoc test (C) and Students’ t-test (D). Statistical significance-compared control: * p < 0.05, ** p < 0.01.

[2] = system: rats; test: Carrageenan-induced paw edema; format: in vivo, rat; conditions: 80 mg/kg
Text: To test the anti-inflammatory activity and the potential to attenuate inflammatory pain, we tested compound 14 in the model of carrageenan-induced aseptic inflammation. In this model, the subplantar injection of carrageenan induced an edema, mechanical, and thermal hyperalgesia. […] In our opinion, the most surprising and interesting was the long-lasting anti-edematous effect. It may result from the pharmacokinetic properties of compound 14, but also from its unique mechanism. Since inflammation is one of the critical components of neuropathy, the anti-inflammatory activity of compound 14 may be a valuable and distinctive property from classical ASDs used to treat neuropathic pain [33]. […] The pain threshold reached 87.3%, 90.9%, and 89.7% of its initial value 3, 6, and 24 h after carrageenan injection, respectively. […] The initial latency for compound 14-treated animals was 8.95 ± 0.4 s. The administration of compound 14 changed the values to 127.0%, 102.0%, 79.8%, 83.8%, and 164.4% of the initial value 1, 2, 3, 6-, and 24-h following carrageenan injection, respectively.
The experiments were conducted on adult male Albino Swiss mice (CD-1, 18–25 g) and male Wistar rats (Krf:(WI) WU), 180–250 g) as described previously. The minimum number of animals used needed to obtain definite and normally distributed results with the utilized test. Behavioral measures were scored by trained observers, which were blind to experimental conditions. The following devices were used in the experiments: Analgesy Meter (37215, Ugo Basile), Plantar Test Apparatus (EFV5, Commat Ltd., Turkey), Plethysmometer (Plethysmometer 7140, Ugo Basile), Electronic von Frey unit (BIOSEB, France). All procedures were performed according to the European Union Directive of 22 September 2010 (2010/63/EU) and approved by the Local Ethics Committee for Experiments on Animals in Krakow, Poland (resolution no. 105/2016).
Figure 8 Effect of compound 14 on carrageenan-induced oedema (A), mechanical hyperalgesia (B), and thermal hyperalgesia (C), developed after subplantar injection of 1% carrageenan in rats. Data are expressed as means ± S.E.M. for 6 animals; 0—the initial value considered as the paw volume (A) or nociceptive reaction (B,C) before carrageenan administration. Statistical significance compared to vehicle-treated animals (control): * p < 0.05, ** p < 0.01, *** p < 0.001, **** p < 0.0001. Statistical analysis: two-way ANOVA post hoc Bonferroni test. Statistical significance in different time points of control group: ^# p < 0.05, ^## p < 0.01, ^### p < 0.001. Statistical analysis: one-way ANOVA, followed by Dunnett’s multiple comparison test (GraphPad Prism 8.0.1).

[3] = system: mice; test: Psychomotor 6 Hz (32 mA) seizure test; format: in vivo, mouse; conditions: mice i.p.
[4] = system: hepatoma HepG2 cells; test: Hepatotoxicity, HepG2 viability (MTS); format: cell-based; conditions: 72 h; viability affected at 100 µM only
[5] = biological target: T1, TRPV1 (VR1) (h) (Homo sapiens, UniProt Q8NER1); test: TRPV1 (VR1) functional assay, antagonist effect; format: cell-based; conditions: HEK293, human recombinant HEK-293 cells, read-out: % Inhibition of Control Agonist Response, TRPV1 (VR1) (h) (antagonist effect)
T1 construct: Cerep Laboratories / Eurofins Panlabs (contract assay)

[6] = in vivo; conditions: male, CD-1, mouse, ip

T1 sequence (Q8NER1 whole entry): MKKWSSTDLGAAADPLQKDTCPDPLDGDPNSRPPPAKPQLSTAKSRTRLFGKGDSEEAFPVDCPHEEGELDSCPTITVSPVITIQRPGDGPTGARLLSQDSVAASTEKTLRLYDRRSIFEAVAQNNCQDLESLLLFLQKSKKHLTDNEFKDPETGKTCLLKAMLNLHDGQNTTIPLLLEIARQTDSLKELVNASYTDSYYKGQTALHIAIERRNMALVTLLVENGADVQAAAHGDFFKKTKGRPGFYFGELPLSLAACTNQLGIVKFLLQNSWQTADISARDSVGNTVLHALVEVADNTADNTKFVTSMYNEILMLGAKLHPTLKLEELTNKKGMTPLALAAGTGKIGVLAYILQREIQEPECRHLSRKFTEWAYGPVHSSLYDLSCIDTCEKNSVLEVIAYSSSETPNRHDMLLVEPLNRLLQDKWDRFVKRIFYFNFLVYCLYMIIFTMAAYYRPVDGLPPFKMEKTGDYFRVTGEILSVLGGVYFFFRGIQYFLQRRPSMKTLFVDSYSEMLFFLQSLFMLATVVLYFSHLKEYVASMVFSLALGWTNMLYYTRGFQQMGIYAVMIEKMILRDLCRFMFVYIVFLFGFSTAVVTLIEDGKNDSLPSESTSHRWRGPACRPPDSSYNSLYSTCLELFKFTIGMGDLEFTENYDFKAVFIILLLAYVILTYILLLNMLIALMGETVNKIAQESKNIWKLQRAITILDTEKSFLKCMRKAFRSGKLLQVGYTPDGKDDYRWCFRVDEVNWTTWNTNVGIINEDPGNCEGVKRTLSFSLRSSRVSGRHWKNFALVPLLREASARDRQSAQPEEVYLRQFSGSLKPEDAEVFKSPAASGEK

CN(C)C1CC(=O)N(C(C(=O)N2CCN(c3cccc(C(F)(F)F)c3)CC2)c2ccccc2)C1=O.Cl (stereo not drawn) [Compound 14, 3-(Dimethylamino)-1-(2-oxo-1-phenyl-2-(4-(3-(trifluoromethyl)phenyl)-piperazin-1-yl)ethyl)pyrrolidine-2,5-dione hydrochloride]
melting point: 157.8 to 159.2 °C | maximal sodium current amplitude normalized to control (1.0) ([1]; 0.01 µM, p > 0.05, n = 5): 0.95 ± 0.05 | maximal sodium current amplitude normalized to control (1.0) ([1]; 0.1 µM, p < 0.05, n = 5): 0.84 ± 0.03 | maximal sodium current amplitude normalized to control (1.0) ([1]; 1 µM, p < 0.01, n = 5): 0.82 ± 0.05 | maximal sodium current amplitude normalized to control (1.0) ([1]; 10 µM, p < 0.01, n = 5): 0.77 ± 0.02 | maximal sodium current amplitude normalized to control, after drug wash-out ([1]; after application of 1 µM): 0.92 ± 0.02 | reduction of paw edema ([2]; 1 h after carrageenan): 36.8% | reduction of paw edema ([2]; 2 h after carrageenan): 55.8% | reduction of paw edema ([2]; 3 h after carrageenan): 62.9% | reduction of paw edema ([2]; 6 h after carrageenan): 68.6% | reduction of paw edema ([2]; 24 h after carrageenan): 74.3% | ED50 ([3]; Mus musculus, ip, 95% confidence interval in parentheses): 31.3 mg/kg | 6 Hz (32 mA) screening: number of mice protected / number of mice tested ([3]; 100 mg/kg, 0.5 h): 3/4 | protection in the 6 Hz (32 mA) test ([3]; 100 mg/kg, 0.5 h): 75% | hepatotoxicity (HepG2 viability) [4]: generally non-toxic | inhibition at 10 µM ([5]; 10 µM): 17.3% | inhibition at 50 µM ([5]; 50 µM): 88.8% | TD50 [6]: 169 mg/kg
